Twelve compounds from PubChem BioAssay (NCI) can be followed below.

Common to all, as to assay: NCI-60 cell line screen, 48 h
The test system of test [1] is A498 renal.
Test [2] deals with CCRF-CEM leukemia.
Test [3] has as its system HOP-92 NSCLC.
For test [4], the system named is K-562 leukemia.
Test [5] concerns KM12 colon.
For test [6], the system named is MDA-MB-231 breast.
Test [7] has as its system MDA-MB-435.
The test system of test [8] is NCI-H226 lung.
Test [9] concerns NCI-H522 lung.
Test [10] deals with OVCAR-8 ovarian.
The subject of test [11] is SF-539 CNS.
Test [12] relates to SK-MEL-28 melanoma.
For test [13], the system named is SK-OV-3 ovarian.
In test [14] the test system is SNB-75 CNS.
The subject of test [15] is DU-145 prostate.

SMILES strings stand for the structures.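 The compound was tested at five concentrations on cells cultured in 96-well plates, with a 48-hour exposure period. TGI is the concentration that stops growth completely.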 A value given as a limit tells only on which side of the number the result lay.

In the case of `CN(/N=C/c1ccccn1)C1=NCCCCN1`, the TGI in [1], in test [2], in test [3], in test [4], in [5] and in test [6] was above 100 µM each time. In addition, the TGI in test [7], in test [8], in test [9], in [10], in test [11] and in test [12] was above 100 µM each time. For the same compound, the TGI in test [13] and in test [14] was above 100 µM in each case.

Consider `CC1(C)CCC[C@@]2(C)C1CC[C@H]1CC(O)C3(C)CCC12C3` (some centres undefined), for which the TGI in test [2] was 61.2 µM; in [3] it was 30.5 µM; in test [4] it was above 100 µM; in test [5] it was 31.3 µM; in [8], 34.3 µM; in test [9], 30.3 µM. For the same compound, the TGI in test [10] stood at 32.6 µM; in test [11] it was 33 µM; in [12] it was 33.7 µM; in test [13], 36.3 µM; in test [14], 39.3 µM.

For the compound `NC(=S)N/N=C(\C(=O)Nc1cccc([N+](=O)[O-])c1)c1nc2ccc([N+](=O)[O-])cc2[nH]c1=O`, the TGI in test [1], in [2], in test [3], in [4], in test [5] and in [8] was above 100 µM in each case. Also, the TGI in test [9] is 53 µM; in test [10] it was above 100 µM; in test [11], above 100 µM; in [12], above 100 µM; in test [13] it was above 100 µM; in test [14], above 100 µM.

As for `CCCn1c(SCC)c2cc3cc4ccccc4cc3cc2c1-c1nc(F)nc(F)n1`, the TGI in [2], in test [3], in [4], in [5], in [8] and in test [9] was above 100 µM throughout. Moreover, the TGI in [10], in test [11], in [12], in test [13] and in test [14] was above 100 µM in each case.

As to `O=C(c1ccco1)N(C(=S)N1CCN(c2ccccn2)CC1)C1CCCCC1`, the TGI in test [2], in test [3], in [4], in [5], in test [8] and in [9] was above 100 µM each time. Further, the TGI in test [10], in [11], in test [12], in test [13] and in test [14] was above 100 µM each time.

`COC(=O)C(=O)C(C(=O)C(=O)Nc1ccccc1C(C)=O)c1nc2ccc(C(=O)c3ccccc3)cc2[nH]c1=O` (centres undefined): the TGI in test [1], in test [3], in test [4], in test [5], in test [6] and in test [8] was above 100 µM each time. In addition, the TGI in test [9], in test [10], in test [11], in test [13] and in [14] was above 100 µM in each case.

Take `CC(C)C1CCC/C=C/C=C/C=C/C=C/C(OC2OC(C)C(O)C(N)C2O)CC2OC(O)(CC(O)CC(O)C(O)CCC(=O)O1)CC(O)C2C(=O)O` (centres undefined): the TGI in test [1], in test [2], in test [3], in test [4], in [9] and in test [10] was above 52.5 µM throughout. Moreover, the TGI in test [11], in test [12], in [13] and in [14] was above 52.5 µM throughout.

`O=C(C1C(c2ccccc2)N1C(c1ccccc1)c1ccccc1)C1C(c2ccccc2)N1C(c1ccccc1)c1ccccc1` (centres undefined): the TGI in test [2] was 22.9 µM; in [4] it was 20.3 µM; in test [5], 72.8 µM; in [6], 45.4 µM; in [7], above 100 µM; in test [9], 23.7 µM. Moreover, the TGI in test [10] is above 100 µM; in test [11], 43.4 µM; in [12] it was 36.1 µM; in test [13] it was above 100 µM; in test [14], above 100 µM.

As to `O=C(c1cccs1)N(C(=S)N1CCN(c2ccccn2)CC1)C1CCCCC1`, the TGI in test [2] is above 100 µM; in test [3], above 100 µM; in test [4], above 100 µM; in test [5], above 100 µM; in test [8], 73.8 µM; in test [9], above 100 µM. For the same compound, the TGI in test [10], in [11], in test [12], in test [13] and in test [14] was above 100 µM throughout.

`CSc1nc(NC(=O)O)c(N(C(C)=O)C(=O)O)c(=O)n1C`: the TGI in test [1], in test [2], in [3], in test [4], in [5] and in test [8] was above 100 µM each time. For the same compound, the TGI in test [10], in test [11] and in [12] was above 100 µM throughout.

On to `O=C(Nc1ccc(F)cc1)C(=O)C(C1OC(=O)c2ccccc21)[N+](=O)[O-]` (centres undefined), for which the TGI in test [1], in test [2], in test [3], in [4], in test [5] and in [8] was above 100 µM in each case. For the same compound, the TGI in test [10], in [11], in test [12], in test [13] and in test [14] was above 100 µM throughout.

In the case of `COC(=O)c1ccccc1/C=C1\Cc2cc(C)cc(C)c2C1=O`, the TGI in test [1], in test [2], in [15], in test [4], in [5] and in test [6] was above 100 µM in each case. The TGI in test [8], in test [9], in [10], in test [11], in [12] and in test [14] was above 100 µM each time.
